# Source: US20170020909A1, “METHODS OF TREATING GLAUCOMA USING AMP-ACTIVATED PROTEIN KINASE (AMPK) ACTIVATORS” (Massachusetts Eye and Ear Infirmary, priority 2014, published 2017)
# Test system: AMPKα
# Test: Time course immunoblot of p-AMPKα (Thr172)/total AMPKα in primary human TM cell lysates
# Assay type: cell-based
# Details: 0.5 mM AICAR, human TM cells
# Experimental: Primary human trabecular meshwork (TM) cells were isolated, in accordance with the Declaration of Helsinki, and maintained in culture as described previously.^63 Independent primary human TM cell lines were generated from donors ranging in age from 35 to 72 years and no known history of ocular disease. Cell cultures were maintained, unless otherwise stated, in Dulbecco's modified eagle medium (Life Technologies, Grand Island, N.Y.) containing 20% fetal bovine serum, 1% L-glutamine (2 mM), and gentamicin (0.1 mg/ml) at 37° C. in a 10% CO2 atmosphere. Only TM cells from third through fifth passage were used. All experiments were performed using at least three different primary human TM cell lines.
# At the conclusion of each experiment for matricellular and ECM protein detection, conditioned media (CM) from TM cell cultures was harvested and centrifuged at 5000 rpm for 10 minutes at 4° C. The supernatant was then concentrated (Amicon Ultra-4 Filter Unit, 10 kDa; Millipore, Milford, Mass.), and protein content quantified using the DC Protein Assay kit adhering to manufacturer's protocols (Bio-Rad, Hercules, Calif.). For AMPK protein detection, cells were lysed for 3 minutes on ice with cold 1×RIPA buffer containing 0.5% Aprotinin, 0.1% EDTA, 1% EGTA, 0.5% PMSF, and 0.01% Leupeptin. Samples were then centrifuged at 14,000 rpm for 15 minutes at 4° C. and protein content quantified. In all experiments, equal amounts of protein were treated with 6× reducing buffer and boiled for 5 minutes. Samples were then electrophoresed in 10% SDS-polyacrylamide gels, alongside a pre-stained protein marker (Cell Signaling Technology Inc., Danvers, Ma). For conditioned media loading control, the resultant gels were stained with 0.1% Coomassie Brilliant Blue G-250 (Bio-Rad, Hercules Calif.) for 3 hours and were destained with fixing/destaining solution until clear bands were visible and contrasted well with the true blue background. Otherwise, proteins were transferred to nitrocellulose membranes (0.45-μm pore size; Invitrogen). […] The membranes were then washed three times with 1×TBS-T, scanned, and integrated band intensities were calculated using an infrared imaging system (Odyssey; Li-Cor, Lincoln, Nebr.). […]
compound,measurement,setting,value
"NC(=O)c1ncn([C@@H]2O[C@H](CO)[C@@H](O)[C@H]2O)c1N [AICAR, 5-Aminoimidazole-4-carboxamide riboside]",peak increase of phospho-total AMPK ratio,at 2 hours,greater than 2 fold
same,"increase of phospho-total AMPK ratio, normalized to the zero time point",within 1 hour,77%
